Results from article PMC11623267, “Inhibitors of malaria parasite cyclic nucleotide phosphodiesterases block asexual blood-stage development and mosquito transmission” (Science Advances, 2024).
Read-outs that look alike come from different tables or passages of the source.

What was measured:
[1] = system: PDE activity in cell extracts of malaria parasites; parameters: method as in PMID 16038615, PMID 25951195; conditions: read-out: IC50 against PDE activity in cell extracts; cited from earlier work
[2] = system: P. falciparum 3D7; experiment: Ex vivo 72-hour SYBR Green assay, 3D7 control (Uganda); format: cell-based, Plasmodium falciparum; conditions: Plasmodium falciparum, 3D7, read-out: EC50 lab strain 3D7
Experimental: (§1) Samples were delivered to the adjacent IDRC laboratory at Tororo District Hospital or transported by car from Masafu Hospital on the day of collection for storage of blood spots on filter paper (for isolation of nucleic acids) and initiation of ex vivo culture of malaria parasites. […] Before assay, 10 mM antimalarial stock compounds were diluted as necessary in DMSO and stored at −20°C. […] Compounds were serially diluted threefold in a 96-well assay plate in complete medium to a final volume of 50 μl, in columns 1 to 10, with concentrations optimized to capture full dose-response curves. Column 11 contained compound-free controls, while column 12 contained uninfected human RBC controls. Parasite culture (150 μl) was added to columns 1 to 11 of the assay plate with a final volume of 200 μl per well, 0.2% parasitemia, and 2% hematocrit. […] Thawed plates were incubated with SYBR Green lysis buffer for 1 hour in the dark as previously reported ([62]). Fluorescence was quantified using a BMG Fluostar Optima plate reader at an excitation of 485 nm and an emission of 530 nm, and data were plotted using GraphPad Prism 7. The data were curve fit with a variable slope function to estimate IC50 values. For each isolate, a Z′ factor to assess assay quality was calculated from positive controls (eight drug-free wells) and negative controls (eight parasite-free, red cell control wells). Z′ values over 0.5 were considered good assays, but each curve was also examined by eye for suitability. Some assays with Z′ below 0.5 may be considered valid depending on factors such as the SE of the curve-fit IC50.

[3] = system: P. falciparum (clone 3D7); experiment: Parasite reduction ratio (PRR) assay; format: cell-based, Plasmodium falciparum; conditions: for Slope: 10× EC50, 3D7 killing profile
Experimental: The in vitro killing profile of compounds was determined by monitoring the ability of parasites to recover following treatment with a compound of interest using a previously reported approach ([50]), which allowed calculation of the PRR ([51]). […] To quantify the number of viable parasites following treatment, four independent sets of threefold serial dilutions were performed on each sample, which were assayed for the presence or absence of parasites after 28 days using the LDH assay, and the number of viable parasites was determined by the number of wells showing growth. PRR and PCT99.9% were calculated as previously reported ([50]).

[4] = system: P. falciparum clinical isolates from Tororo and Busia Districts of Uganda; experiment: Ex vivo 72-hour SYBR Green assay, Ugandan clinical isolates; format: cell-based, Plasmodium falciparum; conditions: Plasmodium falciparum
Text: Clinical isolates were from the Tororo District of Uganda, located in the central-eastern part of the county near the Kenya border. Tororo and surrounding areas have high-intensity, year-round malaria transmission. […] Patients reporting use of antimalarial treatment within the previous 30 days or with evidence of an infection with other Plasmodium species were excluded. Informed consent was obtained from patients and/or primary care givers (depending on age); children aged 8 to 17 years provided assent. Two to 5 ml of blood was collected by venipuncture in a heparin tube. Samples were delivered to the adjacent IDRC laboratory at Tororo District Hospital or transported by car from Masafu Hospital on the day of collections for storage of blood spots on filter paper (for isolation of nucleic acids) and initiation of ex vivo culture of malaria parasites. Treatment involved a standard therapeutic regimen for uncomplicated falciparum malaria, which was a 3-day course of the artemisinin-based combination therapy (ACT), artemether-lumefantrine. In Uganda, at the time of sampling, there was widespread resistance to the antifolate drugs due to mutant pfdhfr/pfdhps alleles. […] Chloroquine was prepared at 10 mM in water. Stock solutions were stored at −20°C. Working solutions were freshly prepared from a single aliquot within 4 hours of the susceptibility test and stored at 4°C.
as §1

[5] = system: P. falciparum clinical isolates from Porto Velho, Brazil; experiment: Ex vivo schizont maturation assay, Brazilian clinical isolates; format: cell-based, Plasmodium falciparum; conditions: Plasmodium falciparum
Experimental: Only monoinfected patients with P. falciparum with parasitemia between 2000 and 80,000 parasites/μl and with at least 70% of ring-stage parasites were recruited. Patients who had used an antimalarial in the previous month and/or presented with symptoms of severe malaria were excluded from the study. The study cohort comprised 24 patients living in this highly endemic area. A peripheral venous blood sample (5 ml) was collected from each individual by venipuncture in heparin-containing tubes and immediately used in the ex vivo drug susceptibility assay using preprepared plates containing diluted antimalarial compounds. […] Last, 20 μl of each dilution was transferred into the ex vivo assay plate and diluted 10-fold into the final assay medium containing parasites. For the infected blood preparation, 5 ml of whole blood was centrifuged at 800g for 10 min, and the plasma and buffy coat were removed. […] Control assays on a 3D7 laboratory isolate were performed with medium supplemented with human serum (20%). The iRBC (180 μl per well) were distributed in the predosed drug plate. […] Control wells containing drug-free iRBCs were cultured with complete medium. The parasite-drug incubation was terminated when 40% of the ring stages reached the schizont stage (at least three distinct nuclei per parasite) in the drug-free control wells. Thick blood films were then made from each well, dried, stained with 5% Giemsa solution for 30 min, and examined microscopically. The number of schizonts per 200 asexual-stage parasites was determined for each drug concentration and then normalized by comparing with the schizont number in the drug-free control wells [considered as 100% ([64])]. The half-maximal drug inhibitory response (EC50) was estimated by curve fitting using software from the OriginLab Corporation, Northampton, MA, USA and comparing with parasite growth in the drug-free controls.

[6] = system: P. falciparum Dd2; experiment: Ex vivo 72-hour SYBR Green assay, Dd2 control (Uganda); format: cell-based, Plasmodium falciparum; conditions: Plasmodium falciparum, DD2, read-out: EC50 lab strain Dd2
Experimental: as §1

[7] = system: P. falciparum Dd2-B2; experiment: 72-hour flow cytometry EC50 assay, Dd2-B2 parental line; format: cell-based, Plasmodium falciparum; conditions: Plasmodium falciparum, DD2, read-out: EC50 Dd2-B2 parental line
Experimental: (§2) Stocks of SAL-0010003 (5-benzyl), SAL-0010355 (5-aryl), and SAL-0010419 (2-alkyl) were made at 10 and 1 mM in DMSO. Aliquots in use were stored at −20°C, and long-term storage was at −80°C. All in vitro studies were done such that the final DMSO concentration was <0.5%. P. falciparum ABS parasites were cultured at 3% hematocrit in human O+ RBCs in RPMI 1640 medium, supplemented with 25 mM Hepes, 50 mg L-hypoxanthine, 2 mM L-glutamine, 0.225% sodium bicarbonate, 0.5% (w/v) AlbuMAX II (Invitrogen) and gentamycin (10 μg/ml), in modular incubator chambers (Billups-Rothenberg) at 5% O2, 5% CO2, and 90% N2 at 37°C. Dd2-B2 (obtained from T. Wellems, National Institute of Allergy and Infectious Diseases, National Institutes of Health) is a genetically homogenous line that was cloned from Dd2 by limiting dilution. To define the EC50 and EC90 values of ABS parasites, Dd2-B2 ring-stage cultures at 0.2% parasitemia and 1% hematocrit were exposed for 72 hours to a range of 10 drug concentrations that were twofold serially diluted in duplicates along with drug-free controls. Parasite survival was assessed by flow cytometry on an iQue flow cytometer (Sartorius) using SYBR Green and MitoTracker Deep Red FM (Life Technologies) as nuclear stain and vital dyes, respectively. After determination of the EC50 and EC90 values for the three compounds with the P. falciparum Dd2-B2 clone, one single-step selection was set up using 2 × 10^5 parasites in each well of a 96-well plate at a starting concentration of 3× EC90. Parasites were cleared from the culture rapidly, and cultures were screened three times weekly by flow cytometry and counted as positive for recrudescence when the overall parasitemia reached 0.3% and the parasites were visible on a blood smear. DNA was extracted from recrudescent lines using a QIAGEN QIAamp Blood Mini Kit, and libraries were prepared with the Illumina DNA Prep kit for whole-genome sequencing on the Illumina MiSeq using a V3 2 × 300–base pair flow cell.

[8] = system: HepG2 cells; experiment: HepG2 cytotoxicity; format: cell-based
Text: Table 1. Key activity data for the three main chemical subseries against ABS parasites, parasite fractions, and HepG2 cells. ND, not determined; ×/÷ is the geometric mean with geometric SD. | column: HepG2 EC50 (nM) (selectivity index)

[9] = system: P. falciparum Dd2-B2 lines selected under drug pressure; experiment: 72-hour flow cytometry EC50 assay, lines selected under drug pressure; format: cell-based, Plasmodium falciparum; conditions: for EC50: Plasmodium falciparum
Experimental: Three examples of an additional compound series developed independently [NPD-2958, NPD-3518 ([31]), and NPD-3738; fig.
as §2

[10] = read-out: EC50 clinical isolates, Gmean (geometric mean)
[11] = read-out: EC50 clinical isolates, Median
[12] = read-out: EC50 clinical isolates, Range

Structure (SMILES): CC(C)Cn1c(=O)n(C)c(=O)c2[nH]cnc21 [3-isobutyl-1-methylxanthine]
- IC50 [1]: > 100 µM

Structure (SMILES): CCN(CC)CCCC(C)Nc1ccnc2cc(Cl)ccc12 (stereo not shown) [Chloroquine, reference compound]
- EC50 [2]: 0.0094 µM
- Lag phase ([3]; 10× EC50, 3D7): 0 h
- PCT99.9% (hours taken to kill 99.9% of the parasites) ([3]; 10× EC50, 3D7): 39.0 h
- Slope [3]: −0.0717 ± 0.0037
- EC50 [4, 10]: 0.013 µM
- EC50 [4, 11]: 0.014 µM
- EC50 [4, 12]: 0.002 to 0.025 µM
- EC50 ([5]; read-out: EC50 range, clinical isolates): 0.626 to 2.6 µM
- EC50 ([5]; read-out: Median EC50, clinical isolates): 1.2 µM
- EC50 [6]: 0.347 µM

Structure (SMILES): CCc1nc(N)nc(N)c1-c1ccc(Cl)cc1 [Pyrimethamine, reference compound]
- EC50 [2]: 0.046 µM
- Lag phase ([3]; 10× EC50, 3D7): 24 h
- Log PRR ([3]; 10× EC50, 3D7): 3.2
- PCT99.9% (hours taken to kill 99.9% of the parasites) ([3]; 10× EC50, 3D7): 63.1 h
- Slope [3]: −0.0667 ± 0.0059
- EC50 [4, 10]: 41.6 µM
- EC50 [4, 11]: 39.3 µM
- EC50 [4, 12]: 15.9 to 196 µM
- EC50 ([4]; read-out: Geometric mean EC50, Ugandan isolates (Fig. 3B)): 41.6 µM
- EC50 [6]: 21.7 µM

Structure (SMILES): CC(C)COc1ccc(C(=O)N2CC(N(C)C)C2)cc1-c1nc2c(C(C)C)n[nH]c2c(=O)[nH]1 [SAL-0010355]
- EC50 [7]: 0.0692 µM
- EC50 ([8]; Homo sapiens, HepG2): > 25 µM
- HepG2 selectivity index ([8]; value in brackets after HepG2 EC50): 1,185
- EC50 ([9]; DD2, read-out: EC50, line selected with SAL-0010355, Well B7): 0.43 µM
- EC50 ([9]; DD2, read-out: EC50, line selected with SAL-0010355, Well D7): 0.469 µM
- EC50 ([9]; DD2, read-out: EC50, line selected with SAL-0010355, Well D9): 0.371 µM
- Mean fold change in EC50 ([9]; selected lines vs Dd2-B2 parental line, ±SD): 6.1 ± 0.7 fold
- EC50 shift, line selected with SAL-0010355, Well B7 ([9]; vs Dd2-B2): 6.2 fold
- EC50 shift, line selected with SAL-0010355, Well D7 ([9]; vs Dd2-B2): 6.8 fold
- EC50 shift, line selected with SAL-0010355, Well D9 ([9]; vs Dd2-B2): 5.4 fold

Structure (SMILES): Cn1c(=O)c2c(ncn2C)n(C)c1=O [caffeine]
- IC50 [1]: > 100 µM

Structure (SMILES): COc1ccc(C2CNC(=O)C2)cc1OC1CCCC1 (stereo not shown) [rolipram]
- IC50 [1]: > 100 µM

Structure (SMILES): Cn1c(=O)c2[nH]cnc2n(C)c1=O [theophylline]
- IC50 [1]: > 100 µM
